Where two headings read alike, the source gives them in different places. Square brackets hold non-standard residues; d marks the D form. Peptide text beside a SMILES is read from it. * marks the point of attachment. Trp(5-OH) = N[C@@H](Cc1c[nH]c2ccc(O)cc12)C(=O)O; OtBu = CC(C)(C)O*; tBu = CC(C)(C)*
System: brain levels of L-5-hydroxytryptophan (L-5-HTP), serotonin (5-HT) and 5-hydroxyindoleacetic acid (5-HIAA)
Test: Biochemical analysis of brain levels of L-5-HTP, 5-HT and 5-HIAA one hour after a single dose (technique of CURZON and GREEN)
Format: in vivo, rats
Conditions: for change in vivo at 50 mg/kg / change in vivo at 10 mg/kg / change in vivo at 25 mg/kg: Rattus norvegicus, 1 h; for change in vivo at 10 mg/kg: read-out: %, relative to the controls, of L-5-HTP at dose of 10 mg/kg
Protocol: Biochemical analysis of the brain levles of L-5-hydroxytryptophan (L-5-HTP), serotonin (5-HT) and its first metabolite, 5-hydroxyindoleacetic acid (5- HIAA), was carried out one hour after the administration of a single dose to adult rats by the technique of CURZON and GREEN. Three doses were studied, i.e. 10, 25 and 50 mg/kg, 10 animals being used per dose. Table I below indicates the percentage increases in 5-HTP, 5-HT and 5-HIAA relative to the levels found in the control animals: […]

[1] = brain level, adult rats, single dose 10 mg/kg, one hour after administration, percentage increase relative to control animals
[2] = brain level, adult rats, single dose 25 mg/kg, one hour after administration, percentage increase relative to control animals
[3] = brain level, adult rats, single dose 50 mg/kg, one hour after administration, percentage increase relative to control animals
[4] = read-out: %, relative to the controls, of 5-HT at dose of 50 mg/kg
[5] = read-out: %, relative to the controls, of L-5-HTP at dose of 25 mg/kg
[6] = brain level, adult rats, single dose 25 mg/kg, one hour after administration, percentage increase relative to control animals, read-out: %, relative to the controls, of 5-HIAA at dose of 25 mg/kg
[7] = brain level, adult rats, single dose 25 mg/kg, one hour after administration, percentage increase relative to control animals, read-out: %, relative to the controls, of L-5-HTP at dose of 25 mg/kg
[8] = brain level, adult rats, single dose 50 mg/kg, one hour after administration, percentage increase relative to control animals, read-out: %, relative to the controls, of 5-HIAA at dose of 50 mg/kg
[9] = brain level, adult rats, single dose 50 mg/kg, one hour after administration, percentage increase relative to control animals, read-out: %, relative to the controls, of 5-HT at dose of 50 mg/kg
[10] = read-out: %, relative to the controls, of 5-HIAA at dose of 25 mg/kg
[11] = read-out: %, relative to the controls, of 5-HIAA at dose of 50 mg/kg
[12] = brain level, adult rats, single dose 50 mg/kg, one hour after administration, percentage increase relative to control animals, read-out: %, relative to the controls, of L-5-HTP at dose of 50 mg/kg

| Molecule | %, relative to the controls, of 5-HIAA at dose of 10 mg/kg [1] [%] | %, relative to the controls, of 5-HT at dose of 10 mg/kg [1] [%] | %, relative to the controls, of 5-HT at dose of 25 mg/kg [2] [%] | %, relative to the controls, of 5-HIAA at dose of 50 mg/kg [3] [%] | %, relative to the controls, of L-5-HTP at dose of 50 mg/kg [3] [%] | change in vivo at 10 mg/kg [1] [%] | change in vivo at 25 mg/kg [6] [%] | change in vivo at 25 mg/kg [7] [%] | change in vivo at 50 mg/kg [8] [%] | change in vivo at 50 mg/kg [9] [%] | also measured |
| --- | --- | --- | --- | --- | --- | --- | --- | --- | --- | --- | --- |
| 5-HYDROXY-L-TRYPTOPHAN-L-VALINE [Example 9] | 70 | 12 | 40 | 320 | 1700 |  |  |  |  |  | %, relative to the controls, of L-5-HTP at dose of 10 mg/kg [1]: 300%; %, relative to the controls, of 5-HIAA at dose of 25 mg/kg [2]: 250%; %, relative to the controls, of L-5-HTP at dose of 25 mg/kg [2]: 900%; %, relative to the controls, of 5-HT at dose of 50 mg/kg [3]: 45% |
| 5-Hydroxy-L-tryptophyl-5-hydroxy-L-tryptophan hemihydrate [Example 13] |  |  | 5 | 10 | 50 |  |  |  |  |  | %, relative to the controls, of L-5-HTP at dose of 25 mg/kg [2]: 50%; %, relative to the controls, of 5-HT at dose of 50 mg/kg [3]: 5% |
| 5-Hydroxy-L-tryptophyl-γ-aminobutyric acid [Example 20] | 40 | 5 | 5 | 150 | 400 |  |  |  |  |  | %, relative to the controls, of L-5-HTP at dose of 10 mg/kg [1]: 60%; %, relative to the controls, of 5-HIAA at dose of 25 mg/kg [2]: 100%; %, relative to the controls, of L-5-HTP at dose of 25 mg/kg [2]: 200%; %, relative to the controls, of 5-HT at dose of 50 mg/kg [3]: 15% |
| N[C@@H](Cc1c[nH]c2ccc(O)cc12)C(=O)N[C@@H](CC(=O)O)C(=O)O.O.O.O [Example 2, 5-Hydroxy-L-tryptophyl-L-aspartic acid trihydrate] (H-[Trp(5-OH)]-Asp-OH) |  | 5 | 5 |  |  |  |  |  |  |  | change in vivo at 50 mg/kg [4]: 10%; change in vivo at 10 mg/kg: 200%; change in vivo at 25 mg/kg [5]: 600%; change in vivo at 50 mg/kg (read-out: %, relative to the controls, of L-5-HTP at dose of 50 mg/kg): 1000% |
| CCOC(=O)CC[C@H](NC(=O)[C@@H](N)Cc1c[nH]c2ccc(O)cc12)C(=O)OCC.Cl [Example 3, Diethyl 5-hydroxy-L-tryptophyl-L-glutamate hydrochloride] (H-[Trp(5-OH)]-Glu(OEt)-OEt) | 50 | 10 |  |  |  | 100 | 150 | 400 | 200 | 200 |  |
| N[C@@H](Cc1c[nH]c2ccc(O)cc12)C(=O)N[C@@H](CCC(=O)O)C(=O)O [Example 4, 5-Hydroxy-L-tryptophyl-L-glutamic acid] (H-[Trp(5-OH)]-Glu-OH) |  | 5 | 10 |  |  | 200 |  | 550 |  | 60 |  |
| COC(=O)[C@H](Cc1ccc(O)cc1)NC(=O)[C@@H](N)Cc1c[nH]c2ccc(O)cc12.Cl [Example 5, Methyl ester of 5-hydroxy-L-tryptophyl-L-tyrosine hydrochloride] (H-[Trp(5-OH)]-Tyr-OMe) | 55 | 12 | 10 | 170 | 1200 |  |  |  |  |  | %, relative to the controls, of L-5-HTP at dose of 10 mg/kg [1]: 200%; %, relative to the controls, of 5-HIAA at dose of 25 mg/kg [2]: 160%; %, relative to the controls, of L-5-HTP at dose of 25 mg/kg [2]: 450%; %, relative to the controls, of 5-HT at dose of 50 mg/kg [3]: 40% |
| COC(=O)[C@H](Cc1ccc(O)cc1)NC(=O)[C@H](Cc1c[nH]c2ccc(O)cc12)NC(C)=O [Example 6, Methyl ester of N-acetyl-5-hydroxy-L-tryptophyl-L-tyrosine] (Ac-[Trp(5-OH)]-Tyr-OMe) |  |  | 5 |  |  |  |  |  |  |  | %, relative to the controls, of 5-HT at dose of 50 mg/kg [3]: 5% |
| COC(=O)[C@H](Cc1c[nH]c2ccc(O)cc12)NC(=O)[C@H](Cc1c[nH]c2ccc(O)cc12)NC(C)=O [Example 7, METHYL ESTER OF N-ACETYL-5-HYDROXY-L-TRYPTOPHYL-5-HYDROXY-L-TRYPTOPHAN] (Ac-[Trp(5-OH)]-[Trp(5-OH)]-OMe) | 10 |  |  | 20 | 30 |  |  |  |  |  | %, relative to the controls, of L-5-HTP at dose of 10 mg/kg [1]: 10%; %, relative to the controls, of 5-HIAA at dose of 25 mg/kg [2]: 20% |
| C[C@H](NC(=O)[C@@H](N)Cc1c[nH]c2ccc(O)cc12)C(=O)O.O [Example 8, 5-HYDROXY-L-TRYPTOPHYL-L-ALANINE HYDRATE] (H-[Trp(5-OH)]-Ala-OH) | 75 |  | 5 |  |  |  |  |  |  |  | change in vivo at 25 mg/kg [10]: 140%; change in vivo at 50 mg/kg [11]: 400%; change in vivo at 10 mg/kg: 200% |
| CC(C)C[C@H](NC(=O)[C@@H](N)Cc1c[nH]c2ccc(O)cc12)C(=O)O [Example 10, 5-HYDROXY-L-TRYPTOPHYL-L-LEUCINE] (H-[Trp(5-OH)]-Leu-OH) | 55 |  | 12 |  |  | 200 | 100 | 600 | 350 | 45 |  |
| N[C@@H](Cc1c[nH]c2ccc(O)cc12)C(=O)N1CCC[C@H]1C(=O)O [Example 11, 5-HYDROXY-L-TRYPTOPHYL-L-PROLINE] (H-[Trp(5-OH)]-Pro-OH) |  | 10 |  |  |  | 200 | 150 | 700 | 300 | 20 |  |
| N[C@@H](Cc1c[nH]c2ccc(O)cc12)C(=O)N[C@@H](Cc1ccccc1)C(=O)O [Example 12, 5-HYDROXY-L-TRYPTOPHYL-L-PHENYLALANINE] (H-[Trp(5-OH)]-Phe-OH) |  |  |  |  |  |  |  |  |  |  | change in vivo at 25 mg/kg [10]: 140%; change in vivo at 50 mg/kg [11]: 180%; change in vivo at 50 mg/kg [4]: 25%; change in vivo at 10 mg/kg: 170%; change in vivo at 25 mg/kg [5]: 500% |
| N[C@@H](Cc1c[nH]c2ccc(O)cc12)C(=O)N[C@@H](Cc1c[nH]c2ccccc12)C(=O)O [Example 14, 5-Hydroxy-L-tryptophyl-L-tryptophan] (H-[Trp(5-OH)]-Trp-OH) |  |  | 12 |  |  | 50 |  | 100 |  | 10 | change in vivo at 50 mg/kg [12]: 200% |
| CC(C)(C)OC[C@H](NC(=O)[C@@H](N)Cc1c[nH]c2ccc(O)cc12)C(=O)OC(C)(C)C [Example 15, Tert.-butyl ester of L-5-hydroxytryptophyl-O-tert.-butyl-L-serine] (H-[Trp(5-OH)]-Ser(tBu)-OtBu) |  |  |  | 150 | 900 |  |  |  |  |  | %, relative to the controls, of L-5-HTP at dose of 10 mg/kg [1]: 200%; %, relative to the controls, of 5-HIAA at dose of 25 mg/kg [2]: 60%; %, relative to the controls, of L-5-HTP at dose of 25 mg/kg [2]: 400% |
| N[C@@H](Cc1c[nH]c2ccc(O)cc12)C(=O)N[C@@H](CO)C(=O)O [Example 16, L-5-HYDROXYTRYPTOPHYL-L-SERINE] (H-[Trp(5-OH)]-Ser-OH) | 10 |  |  |  |  | 170 | 30 |  | 150 | 15 | change in vivo at 50 mg/kg [12]: 900% |
| N=C(N)NCCC[C@H](NC(=O)[C@@H](N)Cc1c[nH]c2ccc(O)cc12)C(=O)O [Example 18, 5-Hydroxy-L-tryptophyl-L-arginine] (H-[Trp(5-OH)]-Arg-OH) | 10 | 12 | 30 |  |  | 100 | 15 | 300 | 15 | 30 | change in vivo at 50 mg/kg [12]: 500% |
| N[C@@H](Cc1c[nH]c2ccc(O)cc12)C(=O)NCC(=O)O [Example 19, 5-HYDROXY-L-TRYPTOPHYLGLYCINE] (H-[Trp(5-OH)]-Gly-OH) | 75 | 30 | 12 |  |  |  | 170 | 700 | 350 | 30 |  |

Source: US4518587A, “Dipeptides of L-5-hydroxytryptophan, processes for their preparation and drugs in which they are present” (S.A. Panmedica, priority 1983, dated 1985)
